From PubChem BioAssay AID1035470 (Broad Institute, 2014)
Inconclusive results are not listed. Activity calls are given as the source filed them.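 How the source made its calls: active means compound lowering the normal-ribosome reporter at least twice as much as the humanized-ribosome reporter, growth loss under a set limit; inconclusive means no clear call, values can overlap the other calls; inactive means the rest.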

Test system: E. coli WT-GFP vs G2058-humanized RFP, fluorescence, 24 h
Experiment: growth inhibition of wild-type GFP E. coli versus G2058-humanized strain, dose response, G2058 mutant RFP vs wild-type GFP, cherry-pick, two tests (AID 1035470)
[1] = E. coli WT-GFP vs G2058-humanized RFP mixed culture, total growth OD600, 24 h
[2] = measured here: G2058 humanized mutant RFP growth
[3] = E. coli WT-GFP vs G2058-humanized RFP mixed culture, OD600 growth, 24 h, test 1
[4] = measured here: mutant RFP, test 1
[5] = measured here: wild-type GFP, test 1

Row | SMILES | AC50 | AC50 [1] [µM] | also measured
1 | N#Cc1ccc(C(=O)Nc2ccn(-c3ccccc3)n2)cc1 | > 100 µM (inactive) |  | 
2 | Cc1ccc(NC(=O)c2ccc([N+](=O)[O-])o2)c(C)c1 | > 100 µM (inactive) |  | 
3 | COc1cccc(S(=O)(=O)N2CCCCN3[C@H](C2)[C@H](c2ccc(C#CC(C)C)cc2)[C@@H]3CO)c1 | > 100 µM (inactive) |  | 
4 | COc1ccc(CNC(=O)c2nc(S(=O)(=O)Cc3ccccc3)ncc2Cl)cc1 | > 100 µM (inactive) |  | 
5 | Cc1cccc(N2CCN(Cc3nc(-c4ccc(F)cc4F)oc3C)CC2)n1 | > 100 µM (inactive) | > 100 | 
6 | O=[N+]([O-])c1ccc(N2CCOCC2)c2c1no[n+]2[O-] |  |  | AC50 [2]: 0.638 µM
7 | Cc1cc(-c2ccc(C)c(S(=O)(=O)NCC3CCN(Cc4ccccc4F)CC3)c2)on1 | > 100 µM (inactive) | > 100 | 
8 | NS(=O)(=O)c1ccc(NC(=O)CCC(=O)O)cc1 |  | > 100 | 
9 | CN(C)S(=O)(=O)c1ccc(Cl)c(C(=O)OCC(=O)NC(=O)c2cccn2C)c1 | > 100 µM (inactive) |  | 
10 | COc1ccc(NC(=O)CCC(=O)c2cccs2)cc1S(=O)(=O)Nc1ccc(Cl)cc1 | > 100 µM (inactive) |  | 
11 | COc1ccc(Nc2oc(-c3ccco3)nc2S(=O)(=O)c2ccc(F)cc2)cc1 | 8.11 µM |  | AC50 [3]: 29 µM; AC50 [4]: 37.6 µM; AC50 [5]: 4.64 µM
12 | Nc1ccccc1Sc1c[nH]c2ccccc12 | > 100 µM (inactive) | > 100 | 
13 | Cc1ccc(Oc2ccc(S(=O)(=O)N3CCOCC3)cc2C(N)=O)cc1C | > 100 µM (inactive) | > 100 | 
14 | Cc1cc(C)nc(SCc2cn3c(C)cccc3n2)n1 | > 100 µM (inactive) | > 100 | 
15 | Cc1cccc(-c2ccc([C@@H]3[C@@H](CO)N4CCCCN(S(=O)(=O)c5ccccc5C)C[C@@H]34)cc2)c1 |  | > 100 | 
16 | O=c1[nH]c(C2CCN(S(=O)(=O)c3ccc4c(c3)OCCO4)CC2)nc2c1nnn2Cc1ccccc1F | > 100 µM (inactive) | > 100 | 
17 | CCOc1ccccc1NC(=O)c1cc(SC)ccc1Cl | > 100 µM (inactive) | > 100 | 
18 | CCOC(=O)c1cc(C)nc(N2CCCCC2)c1C#N | > 100 µM (inactive) | > 100 | 
19 | COc1ccc(-c2nc(NC(C)=O)sc2-c2ccccc2)cc1 | > 100 µM (inactive) |  | 
20 | O=C(O)CC(CC(=O)Nc1ccc(Oc2ccccc2)cc1)c1ccccc1 (stereo not given) | > 100 µM (inactive) |  | 
21 | CCCC(=O)Nc1sc2c(c1C(=O)Nc1ccccn1)CCCC2 | > 100 µM (inactive) | > 100 | 

Row | SMILES | AC50 | AC50 [1] [µM] | also measured
22 | COc1ccc(Nc2nc(N)c([N+](=O)[O-])c(N3CCOCC3)n2)cc1 | > 100 µM (inactive) | > 100 | 
23 | COc1ccccc1N1CCN(Cc2ccc(OC)c3ccccc23)CC1 |  | > 100 | 
24 | O=C(CSc1nnc(-c2ccccc2F)n1C1CC1)Nc1cccnc1Cl | > 100 µM (inactive) |  | 
25 | COc1ccccc1N(C)S(=O)(=O)c1ccc(Cl)c(C(=O)NC2=NCCS2)c1 |  |  | AC50 [2]: 46.3 µM
26 | Cc1ccc(S(=O)(=O)N2CCOCC2)cc1NC(=O)COc1ccc(-c2nnco2)cc1 | > 100 µM (inactive) |  | 
27 | N#CCC(=O)Nc1ccc(C(=O)OCC(=O)Nc2ccc3ccccc3c2)cc1 | > 100 µM (inactive) |  | 
28 | C[C@H](CO)N1C[C@H](C)[C@H](CN(C)C(=O)Nc2ccc3c(c2)OCO3)Oc2c(NC(=O)Nc3ccccc3)cccc2C1=O | > 100 µM (inactive) |  | 
29 | O=C(CN1C(=O)c2ccccc2C1=O)Nc1cccc(S(=O)(=O)Nc2ccccc2Cl)c1 | > 100 µM (inactive) | > 100 | 
30 | CC(CCc1ccccc1)NC(=O)CCC1CCCC1 (stereo not given) |  | > 100 | 
31 | O=C(O)c1ccccc1-c1ccccc1C(=O)Nc1ccc2c(c1)CCC2 | > 100 µM (inactive) |  | 
32 | Cc1ccc(OCCCC(=O)NC(C)c2ccccc2)c(C)c1 (stereo not given) | > 100 µM (inactive) |  | 
33 | COc1cccc(SCC(=O)N2CCN(c3ccccc3)CC2)c1 |  | > 100 | 
34 | O=C(COC(=O)C1CC2C=CC1C2)NCCc1ccccc1 (stereo not given) |  | > 100 | 
35 | Cc1nc(N2CCC(C)CC2)c(C#N)c(C)c1[N+](=O)[O-] | > 100 µM (inactive) |  | 
36 | CS(=O)(=O)c1ccc(C(=O)Nc2nc(-c3ccco3)c(-c3ccco3)s2)cc1 | > 100 µM (inactive) | > 100 | AC50 [2]: > 100 µM
37 | Cc1cccc(C(=O)NCC(=O)NCCSc2ccc(Br)cc2)c1 | > 100 µM (inactive) |  | AC50 [2]: 7.48 µM
38 | COC(=O)c1c(NC(=O)CCC(=O)O)sc(Cc2ccccc2)c1C | 28.4 µM | 35.7 | AC50 [3]: 27 µM; AC50 [2]: 5.11 µM; AC50 [4]: 11.9 µM; AC50 [5]: 1.53 µM
39 | O=C(C[C@H]1CC[C@H](NC(=O)Nc2ccccc2F)[C@H](CO)O1)NCc1ccc(-c2ccccc2)cc1 | > 100 µM (inactive) | > 100 | 
40 | CSc1ccccc1OCc1cc(C(=O)N[C@H]2CCCCNC2=O)no1 | > 100 µM (inactive) | > 100 | 
41 | O=C1CSC(c2cccnc2)N1Cc1ccc(Cl)c(Cl)c1 (stereo not given) |  | > 100 | 
